{"source": "paper PMC8609519", "about": "“Potent Inhibitor of Human Trypsins from the Aeruginosin Family of Natural Products” (ACS Chemical Biology, 2021)", "key": {"[1]": {"biological_target": "T1, trypsin-1 (Homo sapiens, UniProt P07477)", "T1 construct": "made in house; host or cells: Escherichia coli", "test": "Surface plasmon resonance (Biacore) kinetic analysis", "type": "binding", "conditions": "SPR", "method": "(§1) The binding of suomilide to trypsin-1 and -3 was analyzed with surface plasmon resonance in Biacore 2000 instrumentation (Cytiva). […] The binding was analyzed using Tris-buffered saline (pH 7.4) containing 0.01% DMSO as the running buffer and a flow rate of 30 μL min^–1. The kinetics of the suomilide interaction with the trypsins were measured by varying suomilide concentrations from 250 to 4000 nM with a contact time of 5 min and a dissociation phase of 20 min. After the completion of the dissociation phase, the flow cells were regenerated with 10 mM Glycine, pH 1.7. The data were evaluated by first subtracting the sensorgrams obtained from the trypsin-3 mutant control flow cell from those obtained from the flow cells containing trypsin-1 or -3 for each suomilide concentration separately and overlaying the resulting sensorgrams for each ligand. Association and dissociation rate constants were obtained by the Langmuir global fit model (BiaEvaluation Software, Cytiva). The residence time was calculated as a reciprocal of the […]."}, "[2]": {"biological_target": "T2, trypsin-3 (Homo sapiens, UniProt P35030)", "T2 construct": "made in house; host or cells: Escherichia coli", "T2 sequence (P35030 81-304 limits assumed)": "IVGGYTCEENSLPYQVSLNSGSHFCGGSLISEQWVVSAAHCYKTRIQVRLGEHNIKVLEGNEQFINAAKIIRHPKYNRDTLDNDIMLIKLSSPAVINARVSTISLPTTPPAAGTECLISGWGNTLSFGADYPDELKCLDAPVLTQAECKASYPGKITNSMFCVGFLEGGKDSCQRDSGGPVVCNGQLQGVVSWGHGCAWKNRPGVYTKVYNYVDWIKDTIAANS", "test": "Surface plasmon resonance (Biacore) kinetic analysis", "type": "binding", "conditions": "SPR", "method": "as §1"}, "[3]": {"test_system": "thrombin", "parameters": "method as in doi:10.1016/s0040-4039(97)01193-3", "conditions": "cited from earlier work"}, "[4]": {"test_system": "PC-3M prostate cancer cells", "test": "Transwell cell invasion assay through Matrigel", "type": "cell-based, human", "conditions": "3.3 μM, 4 days, Transwell with Matrigel", "method": "(§2) PC-3M prostate cancer cells[46] were cultured in Ham’s F12 Nutrient Mix with GlutaMAX (Gibco), supplemented with 10% fetal calf serum (FCS), 100 IU mL^–1 penicillin, 100 μg mL^–1 streptomycin, and 0.15% sodium bicarbonate at 37 °C in a humidified, CO2-controlled (5%) incubator. For the invasion assay, PC-3M cells (1.45 × 10^5) in a serum-free medium containing 0 or 3.3 μM suomilide were added into polycarbonate membrane Transwell inserts with 8.0 μm pore size (Thermo Fisher) covered with 100 μL of the phenol red-free Matrigel basement membrane matrix (Corning) diluted 1:30 with phosphate-buffered saline. The inserts were placed into a 24-well plate containing 750 μL of the culture medium with 10% FCS and incubated for 4 days at 37 °C in a humidified, CO2-controlled (5%) incubator. Matrigel and the noninvasive cells were removed using cotton swabs, and the membranes were stained with 0.09% crystal violet for 10 min. The experiment was performed twice, both with four replicates (n = 2). The invasion was quantitated from microscopic images (three panels from each of the replicates) using Fiji ImageJ. […] After 3 days, 10 μL/well CCK-8 solution (Cell Counting Kit-8, Dojindo) was added, and absorbance at 450 nm was measured after 1.5 h incubation. […]"}, "[5]": {"test_system": "plasmin", "parameters": "method as in doi:10.1016/s0040-4039(97)01193-3", "conditions": "cited from earlier work"}, "[6]": {"test_system": "PC-3M prostate cancer cells", "test": "Cell proliferation assay (CCK-8)", "type": "cell-based, human", "conditions": "3.3 μM, 3 days, cells on plastic surface", "method": "as §2"}, "[7]": {"biological_target": "T3, recombinant human trypsin-2 (Homo sapiens, UniProt P07478)", "T3 construct": "made in house; host or cells: Escherichia coli", "T3 sequence (P07478 24-247)": "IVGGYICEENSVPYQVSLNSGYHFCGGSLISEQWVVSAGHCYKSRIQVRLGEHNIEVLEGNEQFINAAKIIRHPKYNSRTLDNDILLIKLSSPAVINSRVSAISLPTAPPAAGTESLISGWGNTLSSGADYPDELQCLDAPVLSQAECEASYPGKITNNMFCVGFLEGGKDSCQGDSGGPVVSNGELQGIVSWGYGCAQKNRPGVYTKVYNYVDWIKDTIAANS", "test": "Serine protease inhibition, chromogenic substrate S-2222", "type": "biochemical", "conditions": "read-out: IC50, trypsin-2; 30 min preincubation, substrate S-2222, n = 3", "method": "(§3) Recombinant trypsinogens-1, -2, and -3 were produced inEscherichia coliand activated to trypsin-1, -2, and -3 as described previously.[45] The enzyme inhibitory activity of suomilide was determined in 96-well plates by adding 10 μL of diluted suomilide (0.21–3400 nM, diluted in ultra-purified water, containing up to 0.027% DMSO), 15 μL of 0.1% bovine serum albumin in 50 mM Tris-buffer saline (BSA/TBS), and 25 μL of each trypsin (1.88 nM). 10 μL of ultra-purified water was used as a control. […] Preincubation of suomilide with trypsin isoenzymes prior to the addition of the substrate was required for maximal inhibition (data not shown). Thus, suomilide was preincubated with trypsins at room temperature for 30 min before the addition of 50 μL of 0.2 mM chromogenic substrate S-2222 (ChromogeniX) in ultra-purified water. The change of absorbance at 405 nm was followed for 15 min (VICTOR X4 multilabel plate reader, PerkinElmer). The experiment was performed three times, each with two replicates (n = 3). The absorbance change during the phase of the substrate reaction in which the absorbance of the control reaction increased linearly over time was determined. The same experiment was performed with plasmin (Sigma) (15 nM) with chromogenic substrate S-2251 (ChromogeniX); plasma KLK (Sigma) (20 nM) with substrate ChromogeniX S-2302 (ChromogeniX); Factor Xa (Sigma) (3 nM) with substrate S-2222; and thrombin (Sigma) (1 nM) with substrate S-2238 (ChromogeniX). Except for urokinase from human kidney cells (Sigma) (125 IU), 15 μL of BSA/TBS with 0.9% NaCl was used. Nine 4-fold dilutions of suomilide were prepared, with 12.5 μM being the highest final concentration. The IC50 values were estimated using Quest Graph, and the standard error was calculated using MS Excel 2013."}, "[8]": {"biological_target": "T1, trypsin-1", "test": "Serine protease inhibition, chromogenic substrate S-2222", "type": "biochemical", "conditions": "read-out: IC50, trypsin-1; 30 min preincubation, substrate S-2222, n = 3", "method": "as §3"}, "[9]": {"biological_target": "T4, human Factor Xa (Homo sapiens, UniProt P00742)", "T4 construct": "purchased Sigma", "T4 sequence (P00742 235-488 limits assumed)": "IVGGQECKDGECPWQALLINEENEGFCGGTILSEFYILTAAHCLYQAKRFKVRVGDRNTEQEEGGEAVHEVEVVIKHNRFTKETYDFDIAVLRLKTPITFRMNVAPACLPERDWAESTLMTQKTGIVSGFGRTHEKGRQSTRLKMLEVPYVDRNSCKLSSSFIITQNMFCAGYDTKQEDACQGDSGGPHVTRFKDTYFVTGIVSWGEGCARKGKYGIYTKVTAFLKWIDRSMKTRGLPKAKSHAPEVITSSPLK", "T4 sequence (P00742 41-179 partner limits assumed)": "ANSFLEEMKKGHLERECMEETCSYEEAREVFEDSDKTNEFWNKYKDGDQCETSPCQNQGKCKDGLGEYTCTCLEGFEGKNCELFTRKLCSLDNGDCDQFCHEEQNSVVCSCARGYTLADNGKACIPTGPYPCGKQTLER", "test": "Serine protease inhibition, chromogenic substrate S-2222", "type": "biochemical", "conditions": "read-out: IC50, human Factor Xa", "method": "as §3"}, "[10]": {"biological_target": "T2, trypsin-3", "test": "Serine protease inhibition, chromogenic substrate S-2222", "type": "biochemical", "conditions": "read-out: IC50, trypsin-3; 30 min preincubation, substrate S-2222, n = 3", "method": "as §3"}, "[11]": {"test_system": "unspecified but most likely non-human trypsin isoenzyme", "parameters": "method as in doi:10.1016/s0040-4039(97)01193-3", "conditions": "cited from earlier work"}, "[12]": {"biological_target": "T5, human thrombin (Homo sapiens, UniProt P00734)", "T5 construct": "purchased Sigma", "test": "Serine protease inhibition, chromogenic substrate S-2238", "type": "biochemical", "conditions": "read-out: IC50, human thrombin, highest final concentration 12.5 μM", "method": "as §3, with “The same experiment was performed with plasmin (Sigma) (15 nM) with chromogenic substrate S-2251 (ChromogeniX); plasma KLK (Sigma) (20 nM) with substrate ChromogeniX S-2302 (ChromogeniX); Factor Xa (Sigma) (3 nM) with substrate S-2222; and thrombin (Sigma) (1 nM) with substrate S-2238 (ChromogeniX). Except for urokinase from human kidney cells (Sigma) (125 IU), 15 μL of BSA/TBS with 0.9% NaCl was used. Nine 4-fold dilutions of suomilide were prepared, with 12.5 μM being the highest final concentration.” left out"}, "[13]": {"biological_target": "T6, human urokinase (Homo sapiens, UniProt P00749)", "T6 construct": "purchased Sigma; host or cells: human kidney cells", "test": "Serine protease inhibition, urokinase from human kidney cells", "type": "biochemical", "conditions": "read-out: IC50, human urokinase", "method": "as §3, with “The same experiment was performed with plasmin (Sigma) (15 nM) with chromogenic substrate S-2251 (ChromogeniX); plasma KLK (Sigma) (20 nM) with substrate ChromogeniX S-2302 (ChromogeniX); Factor Xa (Sigma) (3 nM) with substrate S-2222; and thrombin (Sigma) (1 nM) with substrate S-2238 (ChromogeniX). Except for urokinase from human kidney cells (Sigma) (125 IU), 15 μL of BSA/TBS with 0.9% NaCl was used. Nine 4-fold dilutions of suomilide were prepared, with 12.5 μM being the highest final concentration.” left out"}, "[14]": {"biological_target": "T7, human plasmin (Homo sapiens, UniProt P00747)", "T7 construct": "purchased Sigma", "T7 sequence (P00747 581-810 limits assumed)": "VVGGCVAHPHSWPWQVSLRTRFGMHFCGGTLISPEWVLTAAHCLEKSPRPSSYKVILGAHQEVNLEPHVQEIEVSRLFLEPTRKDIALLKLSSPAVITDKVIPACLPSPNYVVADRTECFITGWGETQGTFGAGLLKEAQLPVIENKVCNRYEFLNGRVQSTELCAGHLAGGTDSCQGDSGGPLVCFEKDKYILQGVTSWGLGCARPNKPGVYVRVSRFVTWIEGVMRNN", "T7 sequence (P00747 97-580 partner limits assumed)": "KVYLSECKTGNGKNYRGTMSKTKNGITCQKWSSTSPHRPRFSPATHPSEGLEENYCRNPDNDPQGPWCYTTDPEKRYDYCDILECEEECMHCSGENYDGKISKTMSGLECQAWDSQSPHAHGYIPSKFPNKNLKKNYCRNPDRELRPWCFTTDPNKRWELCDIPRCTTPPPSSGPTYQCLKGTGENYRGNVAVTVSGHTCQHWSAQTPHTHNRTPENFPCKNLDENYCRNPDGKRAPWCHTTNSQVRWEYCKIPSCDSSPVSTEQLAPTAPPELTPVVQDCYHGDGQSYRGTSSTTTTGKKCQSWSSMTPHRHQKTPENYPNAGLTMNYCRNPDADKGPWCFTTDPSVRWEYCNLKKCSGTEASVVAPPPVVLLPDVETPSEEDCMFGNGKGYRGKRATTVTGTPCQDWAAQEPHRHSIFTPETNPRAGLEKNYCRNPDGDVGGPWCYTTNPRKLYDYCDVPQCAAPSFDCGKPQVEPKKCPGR", "test": "Serine protease inhibition, chromogenic substrate S-2251", "type": "biochemical", "conditions": "read-out: IC50, human plasmin", "method": "as §3, with “The same experiment was performed with plasmin (Sigma) (15 nM) with chromogenic substrate S-2251 (ChromogeniX); plasma KLK (Sigma) (20 nM) with substrate ChromogeniX S-2302 (ChromogeniX); Factor Xa (Sigma) (3 nM) with substrate S-2222; and thrombin (Sigma) (1 nM) with substrate S-2238 (ChromogeniX). Except for urokinase from human kidney cells (Sigma) (125 IU), 15 μL of BSA/TBS with 0.9% NaCl was used. Nine 4-fold dilutions of suomilide were prepared, with 12.5 μM being the highest final concentration.” left out"}, "[15]": {"biological_target": "T8, human plasma kallikrein (Homo sapiens, UniProt P03952)", "T8 construct": "purchased Sigma", "T8 sequence (P03952 391-638 limits assumed)": "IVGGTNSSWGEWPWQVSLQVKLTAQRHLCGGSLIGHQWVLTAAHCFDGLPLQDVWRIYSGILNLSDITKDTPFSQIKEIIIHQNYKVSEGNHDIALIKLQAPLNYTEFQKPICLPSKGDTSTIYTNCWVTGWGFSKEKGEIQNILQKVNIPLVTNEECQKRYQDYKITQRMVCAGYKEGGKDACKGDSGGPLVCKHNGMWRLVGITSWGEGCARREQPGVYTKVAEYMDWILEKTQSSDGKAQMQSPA", "T8 sequence (P03952 20-390 partner limits assumed)": "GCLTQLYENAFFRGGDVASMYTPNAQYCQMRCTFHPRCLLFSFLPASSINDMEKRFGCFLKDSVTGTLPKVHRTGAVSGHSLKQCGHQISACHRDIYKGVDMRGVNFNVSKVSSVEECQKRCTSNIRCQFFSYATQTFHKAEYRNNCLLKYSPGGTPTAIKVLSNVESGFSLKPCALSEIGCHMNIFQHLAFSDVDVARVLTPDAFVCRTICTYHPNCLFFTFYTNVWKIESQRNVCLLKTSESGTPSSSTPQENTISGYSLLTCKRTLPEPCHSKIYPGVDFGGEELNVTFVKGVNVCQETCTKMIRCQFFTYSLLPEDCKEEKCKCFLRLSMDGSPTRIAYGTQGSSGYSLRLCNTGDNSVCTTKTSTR", "test": "Serine protease inhibition, chromogenic substrate S-2302", "type": "biochemical", "conditions": "read-out: IC50, human plasma kallikrein", "method": "as §3, with “The same experiment was performed with plasmin (Sigma) (15 nM) with chromogenic substrate S-2251 (ChromogeniX); plasma KLK (Sigma) (20 nM) with substrate ChromogeniX S-2302 (ChromogeniX); Factor Xa (Sigma) (3 nM) with substrate S-2222; and thrombin (Sigma) (1 nM) with substrate S-2238 (ChromogeniX). Except for urokinase from human kidney cells (Sigma) (125 IU), 15 μL of BSA/TBS with 0.9% NaCl was used. Nine 4-fold dilutions of suomilide were prepared, with 12.5 μM being the highest final concentration.” left out"}, "[16]": {"test_system": "all three human trypsins", "parameters": "method as in PMID 28463992", "conditions": "equally inhibits all three human trypsins; cited from earlier work"}}, "note": "“Also recorded” adds a separate entry of the source."}
{"smiles": "CCCCCC(=O)OCC1OC(OC2CC3C(O)C4(C2)OC(=O)NC4C(C(=O)NCCC2=CCN(C(=N)N)C2)N3C(=O)C(NC(=O)C(COS(=O)(=O)O)OC)C(C)CC)C(OC(=O)CCCCC)C(O)C1O", "note": "(stereo not drawn) [suomilide]", "values": [{"measurement": "kon", "setting": "[1]; immobilized trypsin-1, Langmuir global fit, read-out: ka (association rate constant), trypsin-1", "result": 33000, "unit": "M⁻¹ s⁻¹"}, {"measurement": "koff", "setting": "[1]; immobilized trypsin-1, Langmuir global fit, read-out: kd (dissociation rate constant), trypsin-1", "result": 0.011, "unit": "s⁻¹"}, {"measurement": "residence time", "setting": "[1]; calculated as reciprocal of the dissociation constant, read-out: residence time (τ), trypsin-1", "result": 1.5, "unit": "min"}, {"measurement": "kon", "setting": "[2]; immobilized trypsin-3, Langmuir global fit, read-out: ka (association rate constant), trypsin-3", "result": 12000, "unit": "M⁻¹ s⁻¹"}, {"measurement": "koff", "setting": "[2]; immobilized trypsin-3, Langmuir global fit, read-out: kd (dissociation rate constant), trypsin-3", "result": 0.00029, "unit": "s⁻¹"}, {"measurement": "residence time", "setting": "[2]; calculated as reciprocal of the dissociation constant, read-out: residence time (τ), trypsin-3", "result": 57, "unit": "min"}, {"measurement": "inhibition of thrombin (concentration range)", "setting": "[3]", "result": "low micromolar concentrations"}, {"measurement": "effect on PC-3M cell invasion", "setting": "[4]", "result": "inhibited the invasion; also recorded: significantly inhibited"}, {"measurement": "inhibition of plasmin (concentration range)", "setting": "[5]", "result": "low micromolar concentrations"}, {"measurement": "effect on PC-3M cell proliferation", "setting": "[6]", "result": "without affecting cell proliferation; also recorded: did not affect"}, {"measurement": "IC50", "setting": "[7]", "result": 4.7, "unit": "nM"}, {"measurement": "IC50", "setting": "[8]", "result": 104, "unit": "nM"}, {"measurement": "IC50", "setting": "[9]", "result": "114 ± 2", "unit": "nM"}, {"measurement": "IC50", "setting": "[10]", "result": 11.5, "unit": "nM"}, {"measurement": "inhibition of trypsin (concentration range)", "setting": "[11]", "result": "low micromolar concentrations"}, {"measurement": "IC50", "setting": "[11]; unspecified, most likely non-human trypsin", "result": 1800, "unit": "nM"}, {"measurement": "IC50", "setting": "[12]", "result": "> 12500", "unit": "nM"}, {"measurement": "IC50", "setting": "[13]", "result": "7100 ± 1360", "unit": "nM"}, {"measurement": "IC50", "setting": "[14]", "result": "7.6 ± 2.3", "unit": "nM"}, {"measurement": "IC50", "setting": "[15]", "result": "82 ± 24", "unit": "nM"}]}
{"smiles": "N=C(N)c1ccc(/N=N/Nc2ccc(C(=N)N)cc2)cc1", "note": "[diminazene]", "values": [{"measurement": "inhibition of human trypsins (concentration range)", "setting": "[16]", "result": "micromolar concentrations"}]}
